Results from the NIST ThermoML archive (doi:10.1016/j.fluid.2016.11.010).
± gives the expanded uncertainty stated by the source.

How the values were obtained:
[1] = for vapor or sublimation pressure: Liquid, Transpiration method
[2] = Molar enthalpy of transition or fusion; conditions: Crystal; DSC

Brc1ccc(-n2ccnc2)cc1 [4-bromo-phenyl-1H-imidazole]
[1]
Conditions	vapor or sublimation pressure [kPa]
343.3 K	0.00037 ± 3e-05
348.1 K	0.00065 ± 5e-05
353 K	0.00103 ± 7e-05
358.2 K	0.00174 ± 0.00012
363.2 K	0.00273 ± 0.00018
368.2 K	0.00467 ± 0.00031
374.1 K	0.00773 ± 0.00053

Conditions	Normal melting temperature [°C]
[1], Crystal, DTA	120.1 ± 1.1

Conditions	Molar enthalpy of transition or fusion [kcal/mol]
[2]	6.84 ± 0.287

COc1ccccc1-n1ccnc1 [2-methoxy-phenyl-1H-imidazole]
[1]
Conditions	vapor or sublimation pressure [kPa]
333.2 K	0.00084 ± 7e-05
338.3 K	0.00128 ± 9e-05
343.1 K	0.00192 ± 0.00013
348.1 K	0.00293 ± 0.0002
353 K	0.00409 ± 0.00027
358 K	0.00591 ± 0.00041
362.9 K	0.00864 ± 0.00058
367.9 K	0.01198 ± 0.00079
374.2 K	0.01855 ± 0.0012

Fc1ccc(-n2ccnc2)cc1 [4-fluoro-phenyl-1H-imidazole]
[1]
Conditions	vapor or sublimation pressure [kPa]
313 K	0.00108 ± 7e-05
318.4 K	0.00166 ± 0.00012
323.3 K	0.00268 ± 0.00018
328.2 K	0.00401 ± 0.00027
333.2 K	0.00563 ± 0.0004
335.7 K	0.00702 ± 0.00048
338.2 K	0.00834 ± 0.00056
340.7 K	0.01004 ± 0.00068
343.2 K	0.01191 ± 0.00079
345.6 K	0.01481 ± 0.00098
348.2 K	0.01727 ± 0.0011
353.1 K	0.02449 ± 0.0016
358.2 K	0.03573 ± 0.0023
363.2 K	0.04969 ± 0.0032
368.1 K	0.06685 ± 0.0042
373.1 K	0.09256 ± 0.0058

Fc1ccccc1-n1ccnc1 [2-fluoro-phenyl-1H-imidazole]
[1]
Conditions	vapor or sublimation pressure [kPa]
323.2 K	0.0041 ± 0.00028
328.2 K	0.00615 ± 0.00043
333.2 K	0.00892 ± 0.00061
338.1 K	0.01364 ± 0.00091
343.1 K	0.01948 ± 0.0013
348.1 K	0.02761 ± 0.0018
353.1 K	0.03781 ± 0.0024
358.1 K	0.05311 ± 0.0034
363 K	0.0745 ± 0.0047
367.9 K	0.09597 ± 0.006

Cc1ccccc1-n1ccnc1 [1-(o-tolyl)-1H-imidazole]
[1]
Conditions	vapor or sublimation pressure [kPa]
313.3 K	0.00112 ± 8e-05
318.2 K	0.00165 ± 0.00012
323.2 K	0.00266 ± 0.00017
328.2 K	0.00389 ± 0.00025
333.2 K	0.00587 ± 0.00041
338.1 K	0.00828 ± 0.00056
343.1 K	0.01155 ± 0.00076
348.1 K	0.01711 ± 0.0011
353.1 K	0.02295 ± 0.0015
358 K	0.03338 ± 0.0021
363 K	0.04638 ± 0.0029

Brc1ccccc1-n1ccnc1 [2-bromo-phenyl-1H-imidazole]
[1]
Conditions	vapor or sublimation pressure [kPa]
343.2 K	0.00369 ± 0.00025
348.2 K	0.00534 ± 0.00038
353.2 K	0.00754 ± 0.00051
358.1 K	0.01128 ± 0.00076
363.1 K	0.01573 ± 0.001
368 K	0.0218 ± 0.0014
374 K	0.03122 ± 0.002

COc1ccc(-n2ccnc2)cc1 [4-methoxy-phenyl-1H-imidazole]
[1]
Conditions	vapor or sublimation pressure [kPa]
333.4 K	0.00061 ± 5e-05
338.2 K	0.00094 ± 7e-05
343.3 K	0.00147 ± 0.0001
348.2 K	0.00215 ± 0.00015
353.3 K	0.00328 ± 0.00022
358.3 K	0.00469 ± 0.0003
363.3 K	0.00695 ± 0.00048
368.2 K	0.00969 ± 0.00066
373.2 K	0.01433 ± 0.00093

c1ccc(-n2ccnc2)cc1 [1-phenylimidazole]
[1]
Conditions	vapor or sublimation pressure [kPa]
298.7 K	0.00041 ± 4e-05
308.6 K	0.00105 ± 7e-05
313.5 K	0.00158 ± 0.0001
318.4 K	0.00254 ± 0.00017
319.1 K	0.00269 ± 0.00017
323.5 K	0.00393 ± 0.00025
328.5 K	0.00594 ± 0.00041
333.7 K	0.00902 ± 0.00061
338.4 K	0.01334 ± 0.00088
343.2 K	0.01799 ± 0.0012
348.2 K	0.02552 ± 0.0016
353.1 K	0.03567 ± 0.0023

Cc1ccc(-n2ccnc2)cc1 [4-methyl-phenyl-1H-imidazole]
[1]
Conditions	vapor or sublimation pressure [kPa]
328.3 K	0.00266 ± 0.00018
333 K	0.00399 ± 0.00025
338.1 K	0.00603 ± 0.00043
340.8 K	0.00739 ± 0.00051
345.7 K	0.01103 ± 0.00074
350.7 K	0.01582 ± 0.001
355.7 K	0.02204 ± 0.0014
360.7 K	0.0313 ± 0.002
365.6 K	0.04264 ± 0.0027
370.6 K	0.0608 ± 0.0038
375.3 K	0.07866 ± 0.0049
